Test results published in patent US20190135879A1, “GENE REGULATING BIN2 FUNCTION AND TRANSGENIC PLANT TRANSFORMED BY THE GENE” (SEOUL NATIONAL UNIVERSITY R&DB FOUNDATION, priority 2016, published 2019).
Residues, ends and D or L forms follow the SMILES beside them. *: point of attachment. Cbz = O=C(OCc1ccccc1)*

Key:
BIN2-HA protein = assay: BL treatment assay, BIN2-HA protein amount by IP/Western analysis; type: in vivo, Arabidopsis thaliana
Procedure: Seedlings from 1-week-old plants were harvested and ground to powder in N2 and mixed with the extraction buffer containing 50 mM Tris-Cl (pH 7.5), 100 mM NaCl, 10 mM MgCl2, 1 mM EDTA, 10% glycerol 0.1% NP-40, 1 mM phenymethylsulfonyl fluoride (PMSF), and 1× protease inhibitor cocktail (GenDEPOT) 20 min at 4° C.
The IP experiments were performed using HA Tag IP/Co-IP Kit according to the manufacturer's protocol (Thermo Pierce).
The supernatant was incubated with prewashed anti-HA agarose beads for 4 h at 4° C. with gentle shaking. The beads were collected and washed three times with TBS plus 0.05% Tween-20 detergent (TBST), and dissolved in 2×SDS sample buffer. The proteins were separated by 10% SDS-PAGE, and Anti-HA (1:2,000, AbCam #9110) antibody was used to detect BIN2-HA.
[…] The seedlings were transferred to liquid 1/2 MS medium with 1% sucrose containing various concentrations of BL (24-epibrassinolide, Sigma #E1641), and incubated for the indicated times before being removed for Western analysis.
To investigate the BL-Induced BIN2 degradation, BRZ (Sekimata et al., 2001) treated seedlings were incubated in liquid 1/2 MS medium containing 1 μM BL and/or 20 μM MG132 (Sigma), a specific 26S proteasome inhibitor (Rock et al., 1994) for 30 min.

[1] = test system: BIN2-HA transgenic seedlings; assay: Phenotype of BIN2-HA transgenic seedlings on BRZ / BL medium; type: in vivo, Arabidopsis thaliana
Procedure: (§1) Arabidopsis seeds were sterilized and germinated on agar-solidified 1/2 Murashige and Skoog (MS, Duchefa #M0222) with 1% sucrose. After stratification at 4° C. for 3 days, the wild type and mutant plants were grown under a photoperiod of a long day condition (16 h light/8 h dark) at 23° C. Seeds of various transgenic lines were germinated on Murashige and Skoog medium (1/2 MS) with 2 μM BRZ (Sigma), a BR biosynthesis inhibitor, and grown under a long day condition at 23° C. for 1 week. The seedlings were transferred to liquid 1/2 MS medium with 1% sucrose containing various concentrations of BL (24-epibrassinolide, Sigma #E1641), and incubated for the indicated times before being removed for Western analysis. To confirm whether the amount of BIN2 is affected by the BRs level, we grew BIN2-HA line and a bin2-6D-HA line on medium containing 2 μM BRZ for 2 weeks and then transferred them to liquid medium with 1 μM epi-BL for 2 to 8 days.

[2] = test system: bin2-6D-HA transgenic seedlings; assay: Phenotype of bin2-6D-HA transgenic seedlings on BL medium; type: in vivo, Arabidopsis thaliana; settings: 1 μM BL-containing medium for 0, 2, 4 and 8 d
Procedure: as §1

BIN2 [3] = biological target: T1, BIN2 (Arabidopsis thaliana, UniProt Q39011); assay: Yeast two-hybrid assay of the BIN2-BRF1 interaction; type: binding; settings: SD/-L-T-H medium with 1.5 mM 3-AT
T1 construct: the full-length cDNA fragments of BIN2 and BRF1 were PCR amplified with specific primers; expressed in transfected cells; host or cells: yeast strain AH109
T1 sequence (Q39011 1-380): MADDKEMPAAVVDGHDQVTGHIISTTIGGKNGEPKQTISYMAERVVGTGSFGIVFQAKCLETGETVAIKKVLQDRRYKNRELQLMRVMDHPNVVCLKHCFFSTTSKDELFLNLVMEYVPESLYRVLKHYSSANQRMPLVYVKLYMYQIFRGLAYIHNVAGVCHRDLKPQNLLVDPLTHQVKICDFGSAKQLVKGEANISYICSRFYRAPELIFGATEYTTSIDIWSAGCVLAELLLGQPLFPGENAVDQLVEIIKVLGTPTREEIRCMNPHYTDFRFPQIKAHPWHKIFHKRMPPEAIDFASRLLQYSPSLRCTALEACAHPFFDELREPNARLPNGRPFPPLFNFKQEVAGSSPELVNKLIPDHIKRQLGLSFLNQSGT
Procedure: Yeast two-hybrid assay was conducted following the Matchmaker Gold Yeast Two-Hybrid System manufacturer's protocol (Clontech) for testing the BIN2 and BRF1 interaction.
To make the yeast two-hybrid assay constructs, the full-length cDNA fragments of BIN2 and BRF1 were PCR amplified with specific primers, BIN2-F and BIN2-R, BRF1-NdeI-F and BRF1-EcoRI-R, respectively. The PCR products BIN2 and BRF1 were ligated to the prey pGADT7 vector (AD vector) and the bait pGBKT7 vector (DBD vector), respectively. These prey and bait vectors were transformed into the yeast strain AH109, and yeast was grown on SD/-Trp/-Leu medium for 3 days. Transformants were selected on SD/Leu-/Trp- and SD/Leu-/Trp-/His-/1.5 mM 3-amino-1,2,4-triazole (3-AT, Sigma) medium. Empty vectors were used as the negative control.
Yeast two-hybrid analysis performed using primers BIN2-NdeI-F (5′-[…]-3′), BIN2-EcoRI-R (5′-[…]-3′), BRF1-NdeI-F (5′-[…]-3′), BRF1-EcoRI-R (5′-[…]-3′), (NdeI and EcoRI sites are underlined) (SEQ ID NOs: 48-51)

BIN2 [4] = assay: Immunoprecipitation combined with LC/MALDI-TOF/MS of BIN2-interacting proteins; type: binding, Arabidopsis thaliana; settings: BL-treated transgenic seedlings, anti-HA IP
Procedure: Seeds of transgenic lines, BIN2-HA, bin2-6D-HA, and BIN2KD-HA, were germinated on agar-solidified 1/2 MS with 1% sucrose supplemented with 1 μM BRZ and grown under a long day condition at 23° C. for 2 week. The seedlings were transferred them to liquid medium (1/2 MS with 1% sucrose) with 1 μM BL, and incubated for 30 min. These seedlings were ground to powder in liquid nitrogen and solubilized with protein extraction buffer containing 50 mM Tris-Cl (pH 7.5), 100 mM NaCl, 10 mM MgCl2, 1 mM EDTA, 10% glycerol 0.1% NP-40, 1 mM PMSF, and 1× Protease inhibitor cocktail (GenDEPOT). The extracts were centrifuged at 20,000×g for 20 min, and the resulting supernatants were collected and incubated with pretreated anti-HA agarose bead (Thermo Pierce) at 4° C. After incubation, the agarose beads were collected by centrifugation at 800×g for 30 sec and washed three times with extraction buffer. Immunoprecipitation (IP) complex was eluted by elution buffer containing 50 mM Tris-HCl (pH 7.5), 50 mM DTT, 1 mM EDTA, 10% glycerol, 1% SDS, and 0.01% bromophenol blue, and then separated in a 10% SDS-PAGE gel, and immunoblot analysis. […] The gel lane with separated bin2-6D-HA proteins was cut into a single slices, and then in-gel tryptic digestion and peptide desalting, the extracted peptides were analyzed by MALDI-TOF mass spectrometry on an Ultraflex III TOF/TOF (Bruker Daltonics, Germany). […]

Molecule: CC(C)[C@@H](C)[C@@H](O)[C@H](O)[C@@H](C)[C@H]1CC[C@H]2[C@@H]3COC(=O)[C@H]4C[C@H](O)[C@H](O)C[C@]4(C)[C@H]3CC[C@]12C [BL, 24-epibrassinolide]
- time within which BRZ-stabilized BIN2-HA protein decreased by BL treatment (BIN2-HA protein; BRZ-grown BIN2-HA seedlings transferred to BL liquid medium, Western): 10 to 30 min
- phenotypic response of BIN2-HA transgenic line to BL treatment ([1]; 1 μM BL-containing medium for 0, 2, 4 and 8 d): responds
- phenotypic response of dwarfed bin2-6D-HA line to BL treatment [2]: BL-insensitive

Molecule: CC(O)(c1ccccc1)C(Cc1ccc(Cl)cc1)n1cncn1 (stereo not drawn) [BRZ]
- effect of exogenous application on BIN2 protein (BIN2-HA protein; exogenous application of BRZ): increased
- effect of BRZ treatment on bin2 phenotype of BIN2-HA seedling ([1]; 2 μM BRZ medium for 2 weeks): enhanced

Molecule: CC(C)C[C@@H](C=O)NC(=O)[C@H](CC(C)C)NC(=O)[C@H](CC(C)C)NC(=O)OCc1ccccc1 [MG132] (Cbz-Leu-Leu-Leu-aldehyde)
- effect on BL-induced BIN2 disappearance (BIN2-HA protein; BIN2-HA seedlings, 1 μM BRZ 2 weeks, then 1 μM BL and/or 20 μM MG132, 30 min, IP/Western): effectively blocked

B1: BRF1: Arabidopsis F-box E3 ligase protein encoded by At5g62970, SEQ ID NO: 2 (protein, listed as Arabidopsis sp.)
chain: MDKISGFSDDELLVKILSFLPFKFAITTSVLSKQWKFLWMRVPKLEYDEDSMYSFEYSFRYFLPKAKEVDSETYSIVSESGHRMRSFIEKNLPLHSSPVIESLRLKFFTEVFQPEDIKLWVEIAVSRCAQELSVDFFPKEKHNALLPRNLYTCKSLVTLKLRNNILVDVPHVFSLPSLKILHLERVTYGDGESLQRLLSNCSVLEDLVVELDTGDNVRKLDVIIPSLLSLSFGMSRYCAYEGYRIDTPSLKYFKLTDLSKTFSGLIENMPKLEEANITARHNFKKLLELVTSVKRLSLNIENNDAEALTAIYGDDIVFNELEHLNFHIHNAYWSELLYWLLKASPKLQNLEFDEQCSRDGTMGTLAVFWNQPNSVPQCLLSTLQTFEWSGYPGSVQGKDLATYILRKSRQLKIATISIGYGLDPQQKLKMEMDVKFSFRASPTCKRVFY
- interaction with BIN2 in yeast two-hybrid assay (BIN2 [3]): specially interacted
- identification as BIN2-interacting protein by IP combined LC/MALDI-TOF/MS (BIN2 [4]): BIN2-interacting protein

B2: BRF2: Arabidopsis F-box E3 ligase protein encoded by At5g56690, SEQ ID NO: 4 (protein, listed as Arabidopsis sp.)
chain: MAEISGLPDDLLVKILAFLPTKVAISTSVLSKQWRFLWMWLPKLKYDDYDDITDGFNSVSAFQTYRDFIAKNLPLHRAPIIESLSLGFRCGTLQPEDLKSWVEVAVSRSVRELSILAYYRNNYALSSSSLYTCKSLVTLKGFNIRVDVPPTVCLLPSLRTLELKRVRYLNEDSLRMLLSFCPVLEYLSIERHDNDNLRGLVVDVPSLRRLSLTSYTGCSSDDYVIVTPSLKYFKAFDYRSEISSYKIEKIPELEEADISIERNPEKLFVYFKSIKCLSLQVDFNSKEEPGYDSGIVFNHLEELTPYINDANWSKLLFRLLNDSPKLRVLEISNSKSFYKEKIGEYLPVSWSKNQGSVPKCFLNSLETFRVKWYYSEEQEDRDFLSLIFKHARCLKSTSILHR
- identification as BIN2-interacting protein by IP combined LC/MALDI-TOF/MS (BIN2 [4]): BIN2-interacting protein
